The results in this text go back to US20240343710A1, “HETEROCYCLIC COMPOUNDS AND METHODS OF USE THEREOF” (1cBio, Inc., priority 2023, published 2024).

Where a name gives a salt, the structure may show the parent alone. Read-outs that look alike come from different tables or passages of the source.

Test [1] has as its system DLD-1 BRCA2(−/−) colorectal adenocarcinoma cells. Briefly: Cell viability assay (Cell Titer-Glo, 7 days), DLD-1 BRCA2(−/−). The test is classed as cell-based. The conditions noted are these: Homo sapiens, 168 h, DLD-1 BRCA2(−/−) cells. An excerpt: (§1) In some embodiments, the biological assay measures the effects that compounds of the present disclosure may have on the viability of cells, e.g., the viability of cancer cells. In some embodiments, DLD-1 wild-type and DLD-1 BRCA2(−/−) colorectal adenocarcinoma cells, an isogenic pair of cell lines differing in the presence and absence, respectively, of both BRCA2 alleles, are used to measure the effect of the disclosed compounds on the viability of cancer cells. In some embodiments, the cells are harvested during the logarithmic growth period, counted, and seeded at a specified count in the wells of a 96- or 384-well cell culture plate. In some embodiments, after seeding, the cells are incubated, e.g., at 37° C., 5% CO2 overnight. In some embodiments, the cells are treated with compounds, e.g., with serially diluted test compounds at 8-11 concentrations within a desired concentration range, e.g., from 1 nM-10 μM, for the generation of dose-response curves. In some embodiments, the plate is further incubated, e.g., for another 3-7 days in a humidified incubator at 37° C. and 5% CO2. In some embodiments, cell viability is assessed by luminescence measurement after addition of Cell Titer-Glo reagent (Promega, Madison, Wis.) according to the manufacturer's instructions. In some embodiments, cell viability IC50 values are calculated using XLFit, equation 201: y=A+((B−A)/(1+((x/C)^D))), where A=bottom, B=top, C=IC50, and D=slope. In some embodiments, the effects of the test compounds on the viability of other cell lines such as MDA-MB-436, MDA-MB-231, SUM149PT, HCC1395, and UWB1.289 are determined in an analogous method.
(§2) Compounds of the present disclosure were tested for their effects on the viability of cancer cells. DLD-1 wild-type and DLD-1 BRCA2(−/−) colorectal adenocarcinoma cells, an isogenic pair of cell lines differing in the presence and absence, respectively, of both BRCA2 alleles, were used. The cells were harvested during the logarithmic growth period, counted, and seeded at 50 cells/well for DLD-1 wild-type and 200 cells/well for DLD-1 BRCA2(−/−) in a 384-well cell culture plate. After seeding, cells were incubated at 37° C., 5% CO2 overnight. Cells were treated with serially diluted test compounds at 10 concentrations (e.g., from 1.5 nM-30 μM) for generation of dose response curves, or at a single concentration. The plate was further incubated for another 7 days in a humidified incubator at 37° C. and 5% CO2. Cell viability was assessed by luminescence measurement after addition of Cell Titer-Glo reagent (Promega, Madison, Wis.) according to the manufacturer's instructions. Cell viability IC50 values were calculated using XLFit, equation 201. y=A+((B−A)/(1+((x/C)^D))), where A=bottom, B=top, C=IC50, and D=slope. IC50 values are shown in Table B and are presented in ranges, in which “+++”<300 nM, 300 nM≤“++”<3000 nM, and “+”≥3000 nM. Values for percent inhibition at 10 μM are also shown in Table B and are presented in ranges, in which “***”≥67%, 33%: “**”≤67%, and “*”<33%. Effects of the test compounds on the viability of other cell lines such as MDA-MB-436, MDA-MB-231, SUM149PT, HCC1395, and UWB1.289 are determined in an analogous method.

Test [2] concerns DLD-1 wild-type colorectal adenocarcinoma cells. Briefly: Cell viability assay (Cell Titer-Glo, 7 days), DLD-1 wild-type. The test is classed as cell-based. The conditions noted are these: Homo sapiens, 168 h, DLD-1 wild-type cells, read-out: DLD-1 wild-type % inh at 10 μM.
Description: as §1, §2

In another test the target is recombinant human PARP1 (Homo sapiens, UniProt P09874). Kind of test: PARP1 fluorescence polarization binding assay. The conditions noted are these: GST-tagged PARP1 20 nM, PARP1-FL probe 3 nM. On the procedure:
In some embodiments, the biological assay is described in the Examples herein. In some embodiments, the biological assay measures PARP-1 binding by way of fluorescence polarization measurements. In some embodiments, binding of a test compound to recombinant human PARP-1 reduces the amount of binding of a fluorescent probe, and consequently reduces the detected level of fluorescence polarization. In some test compound stock solutions are prepared in a solvent, e.g., DMSO, and are serially diluted into a range of concentrations, e.g., 15 concentrations, 14 concentrations, 13 concentrations, 12 concentrations, 11 concentrations, 10 concentrations, 9 concentrations, 8 concentrations, 7 concentrations, 6 concentrations, or 5 concentrations, by a dilution factor, e.g., a 10-fold dilution factor, a 9-fold dilution factor, an 8-fold dilution factor, a 7-fold dilution factor, a 6-fold dilution factor, a 5-fold dilution factor, a 4-fold dilution factor, a 3-fold dilution factor, or a 2-fold dilution factor. In some embodiments, the serial dilutions, e.g., 100 nL of serial dilution, 90 nL of serial dilution, 80 nL of serial dilution, 70 nL of serial dilution, 60 nL of serial dilution, 50 nL of serial dilution, 30 nL of serial dilution, 20 nL of serial dilution, or 10 nL of serial dilution, are added to a multi-welled plate, e.g., a 1536-well plate, a 384-well plate, or a 96-well plate. In some embodiments, PARP-1, e.g., GST-tagged PARP-1, is diluted in assay buffer, e.g., 50 μL of assay buffer, 40 μL of assay buffer, e.g., 30 μL of assay buffer, 20 μL of assay buffer, 10 μL of assay buffer, or 5 μL of assay buffer, and is added to the plate. In some embodiments, the plate is centrifuged, e.g., at 1000 rpm for 1 min, and incubated, e.g., incubated for 30 minutes at room temperature (RT). In some embodiments, a fluorescent probe, e.g., 10 μL of 6 nM PARP1-FL (TOCRIS, Cat #6461), is diluted in an assay buffer and is added to the plate. In some embodiments, the final concentrations of PARP-1 and fluorescent probe are 20 nM and 3 nM, respectively, in a total volume of 20 μL. In some embodiments, the plate is centrifuged, e.g., at 1000 rpm for 1 minute, and the assay plate is incubated, e.g., for 4 h at RT. In some embodiments, the samples in each well are read using a plate reader, e.g., an Envision instrument using excitation=480 nm, and emission wavelength=FITC FP-P pol 535 nm & FITC FP-S pol 535 nm). In some embodiments, percent inhibition is calculated from mP values using Inhibition (%)=[1−(mPc−mPL)/(mPH−mPL)]×100%, where mPc, mPL, and mPH are the mP values of test compound, Low controls, and High controls, respectively. In some embodiments, binding IC50 values are calculated using XLFit (equation 201: y=A+((B−A)/(1+((x/C)^D))), where A=bottom, B=top, C=IC50, and D=slope) with a floating top and bottom for curves.
Compounds of the present disclosure were tested in a PARP1 fluorescence polarization binding assay at Pharmaron (Beijing, P.R. China). In this biochemical assay, binding of test compound to recombinant human PARP1 reduces the amount of binding of a fluorescent probe, and consequently reduces the detected level of fluorescence polarization. Test compound stock solutions were prepared in DMSO and then serially diluted into 10 concentrations by 3-fold dilution in a 384-well plate using a TECAN EVO200. Alternatively, a single concentration was prepared. 60 nL of each dilution was transferred to the plate using an Echo550 (Labcyte), and then 10 μL 40 nM GST-tagged PARP1 (BPS Bioscience, Cat #80501), diluted in assay buffer (50 mM Tris pH 8.0, 0.001% Triton X-100, 10 mM MgCl2, 150 mM NaCl), was added to the plate. After a centrifugation at 1000 rpm for 1 min, the assay plate was incubated for 30 min at RT. 10 μL 6 nM PARP1-FL (TOCRIS, Cat #6461), diluted using assay buffer, was then added to the plate. The final concentrations of PARP1 and PARP1-FL were 20 nM and 3 nM, respectively, in a total volume of 20 μL. […]

A further test concerns the target recombinant human PARP2 (Homo sapiens, UniProt Q9UGN5). Kind of test: PARP2 fluorescence polarization binding assay. The conditions noted are these: read-out: PARP2 % inh at 10 μM.
The mark [3] stands for this setting: percent inhibition at 10 μM, fluorescence polarization, GST-tagged PARP2 20 nM, PARP1-FL probe 3 nM.

recombinant human PARP2, sequence (Q9UGN5 whole entry): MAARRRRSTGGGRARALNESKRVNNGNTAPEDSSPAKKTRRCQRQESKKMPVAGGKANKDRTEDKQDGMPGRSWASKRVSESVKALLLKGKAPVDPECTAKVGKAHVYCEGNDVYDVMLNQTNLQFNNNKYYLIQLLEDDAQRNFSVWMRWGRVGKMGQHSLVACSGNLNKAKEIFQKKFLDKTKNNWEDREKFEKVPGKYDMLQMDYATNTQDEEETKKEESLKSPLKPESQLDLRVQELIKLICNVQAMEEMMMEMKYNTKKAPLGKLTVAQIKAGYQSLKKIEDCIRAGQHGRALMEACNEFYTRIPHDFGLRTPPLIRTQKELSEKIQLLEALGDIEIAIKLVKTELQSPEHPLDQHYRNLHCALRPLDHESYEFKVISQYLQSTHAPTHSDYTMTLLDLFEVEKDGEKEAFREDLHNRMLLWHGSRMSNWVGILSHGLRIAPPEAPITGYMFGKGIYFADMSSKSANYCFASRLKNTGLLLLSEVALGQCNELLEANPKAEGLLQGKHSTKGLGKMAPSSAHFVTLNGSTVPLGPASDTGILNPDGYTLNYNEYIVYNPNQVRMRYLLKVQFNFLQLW
recombinant human PARP1, sequence (P09874 whole entry): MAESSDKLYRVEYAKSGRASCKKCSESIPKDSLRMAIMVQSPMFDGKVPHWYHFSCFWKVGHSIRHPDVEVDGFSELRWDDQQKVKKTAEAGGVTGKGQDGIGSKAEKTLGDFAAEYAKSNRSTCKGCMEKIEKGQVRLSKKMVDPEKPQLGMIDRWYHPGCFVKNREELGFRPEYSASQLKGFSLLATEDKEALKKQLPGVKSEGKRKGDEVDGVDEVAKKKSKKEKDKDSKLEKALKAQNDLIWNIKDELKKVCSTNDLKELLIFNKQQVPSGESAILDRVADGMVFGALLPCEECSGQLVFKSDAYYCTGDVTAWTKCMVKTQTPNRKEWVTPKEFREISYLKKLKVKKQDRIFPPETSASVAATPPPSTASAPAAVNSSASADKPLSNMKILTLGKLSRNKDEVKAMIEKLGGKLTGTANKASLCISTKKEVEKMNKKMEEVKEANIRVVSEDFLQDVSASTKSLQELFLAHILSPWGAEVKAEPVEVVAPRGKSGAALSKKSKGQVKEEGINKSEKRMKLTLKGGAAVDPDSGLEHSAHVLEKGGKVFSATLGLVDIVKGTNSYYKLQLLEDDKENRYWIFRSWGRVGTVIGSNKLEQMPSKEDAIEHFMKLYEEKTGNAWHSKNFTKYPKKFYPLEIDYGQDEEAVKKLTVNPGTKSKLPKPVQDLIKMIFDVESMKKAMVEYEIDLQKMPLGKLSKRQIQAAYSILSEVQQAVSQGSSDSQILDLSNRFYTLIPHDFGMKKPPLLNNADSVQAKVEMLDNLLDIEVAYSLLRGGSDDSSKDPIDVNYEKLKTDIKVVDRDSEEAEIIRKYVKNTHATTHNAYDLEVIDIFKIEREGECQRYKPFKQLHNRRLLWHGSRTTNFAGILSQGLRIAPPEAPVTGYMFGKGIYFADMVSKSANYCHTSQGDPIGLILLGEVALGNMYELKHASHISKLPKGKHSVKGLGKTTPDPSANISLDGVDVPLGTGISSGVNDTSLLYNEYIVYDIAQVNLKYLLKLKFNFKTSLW

Turning to `CCNC(=O)Nc1cc(CN2CCN(c3ccc(C(=O)NC)c(=O)n3C)CC2)ccn1` [Compound 30, 6-(4-((2-(3-ethylureido)pyridin-4-yl)methyl)piperazin-1-yl)-N,1-dimethyl-2-oxo-1,2-dihydropyridine-3-carboxamide], the IC50 was 300 to 3000 nM in test [1] and less than 100 nM on recombinant human PARP1. For the same compound, the inhibition at 10 µM (in test [2]; at recombinant human PARP2 (setting [3])) was less than 33% in each case.

As to `CCNC(=O)Nc1cc(CN2CCN(c3ccc(C(=O)NC)cc3F)CC2)ccn1` [Compound 31, 4-(4-((2-(3-ethylureido)pyridin-4-yl)methyl)piperazin-1-yl)-3-fluoro-N-methylbenzamide], the IC50 in test [1] was 300 to 3000 nM; at recombinant human PARP1, less than 100 nM. The inhibition at 10 µM (in test [2]; at recombinant human PARP2 (setting [3])) was less than 33% each time.

Take `CNC(=O)Nc1cc(CN2CCN(c3ccc(C(=O)NC)nc3C)CC2)ccn1` [Compound 42, N,6-dimethyl-5-(4-((2-(3-methylureido)pyridin-4-yl)methyl)piperazin-1-yl)picolinamide trifluoroacetate]: the figures for the IC50 (in test [1]; at recombinant human PARP1) were less than 300 nM and less than 100 nM, respectively. Further, the inhibition at 10 µM (in test [2]; at recombinant human PARP2) was less than 33% in each case.

With `CNC(=O)c1ccc(N2CCN(Cc3ccnc(NC(=O)NC4CC4)c3)CC2)c(C)n1` [Compound 46, 5-(4-((2-(3-cyclopropylureido)pyridin-4-yl)methyl)piperazin-1-yl)-N,6-dimethylpicolinamide], the IC50 in test [1] was less than 300 nM; on recombinant human PARP1, less than 100 nM. Besides, the inhibition at 10 µM (in test [2]; at recombinant human PARP2 (setting [3])) was less than 33% in each case.

Take `CNC(=O)c1ccc(N2CCN(Cc3ccnc(NC(=O)NCC(F)(F)F)c3)CC2)c(C)n1` [Compound 50, N,6-dimethyl-5-(4-((2-(3-(2,2,2-trifluoroethyl)ureido)pyridin-4-yl)methyl)piperazin-1-y) picolinamide trifluoroacetate]: the 50% inhibitory concentration (IC50) is less than 300 nM in test [1] and less than 100 nM at recombinant human PARP1. For the same compound, the inhibition at 10 µM (in test [2]; at recombinant human PARP2 (setting [3])) was less than 33% each time.

As for `CCNC(=O)Nc1cc(CN2CCN(c3ccc(C(=O)NC)nc3C)CC2)c(C)cn1` [Compound 70, 5-(4-((2-(3-ethylureido)-5-methylpyridin-4-yl)methyl)piperazin-1-yl)-N,6-dimethylpicolinamide formate], the half-maximal inhibitory concentration (IC50) in test [1] is less than 300 nM; on recombinant human PARP1 it was less than 100 nM. Moreover, the inhibition at 10 µM (in test [2]; on recombinant human PARP2) was less than 33% each time.

Turning to `CCNC(=O)Nc1nccc(CN2CCN(c3ccc(C(=O)NC)nc3F)CC2)c1F` [Compound 81, 5-(4-((2-(3-ethylureido)-3-fluoropyridin-4-yl)methyl)piperazin-1-yl)-6-fluoro-N-methylpicolinamide], the figures for the IC50 (in test [1]; at recombinant human PARP1) were less than 300 nM and less than 100 nM, respectively. The inhibition at 10 µM (in test [2]; at recombinant human PARP2 (setting [3])) was less than 33% throughout.

Regarding `CCNC(=O)Nc1nccc(CN2CCN(c3ccc(C(=O)NC)nc3C)CC2)c1F` [Compound 82, 5-(4-((2-(3-ethylureido)-3-fluoropyridin-4-yl)methyl)piperazin-1-yl)-N,6-dimethylpicolinamide], the half-maximal inhibitory concentration (IC50) in test [1] was less than 300 nM; at recombinant human PARP1 it was less than 100 nM. Further, the inhibition at 10 µM (in test [2]; on recombinant human PARP2 (setting [3])) was less than 33% throughout.

With `CCCC(=O)Nc1cc(CN2CCN(c3ccc(C(=O)NC)nc3C)CC2)ccn1` [Compound 161, 5-(4-((2-butyramidopyridin-4-yl)methyl)piperazin-1-y)-N,6-dimethylpicolinamide], the IC50 in test [1] fell in the range of 300 to 3000 nM; at recombinant human PARP1 it was 100 to 3000 nM. Also, the inhibition at 10 µM (in test [2]; at recombinant human PARP2 (setting [3])) was less than 33% each time.

As for `CCNC(=O)Nc1cccc(CN2CCN(c3ccc(C(=O)NC)nc3C)CC2)c1` [Compound 202, 5-(4-(3-(3-ethylureido)benzyl)piperazin-1-yl)-N,6-dimethyl picolinamide formate], the IC50 was no less than 3000 nM in test [1] and 100 to 3000 nM on recombinant human PARP1. The inhibition at 10 µM (in test [2]; on recombinant human PARP2 (setting [3])) was less than 33% in each case.

On to `CCNC(=O)Nc1cc(CN2CCN(c3ccc(C(=O)NC)nc3F)CC2)ncn1` [Compound 229, 5-(4-((6-(3-ethylureido)pyrimidin-4-yl)methyl)piperazin-1-yl)-6-fluoro-N-methylpicolinamide formate], for which the results for the 50% inhibitory concentration (IC50) (in test [1]; at recombinant human PARP1) were less than 300 nM and less than 100 nM, respectively. The inhibition at 10 µM (in test [2]; on recombinant human PARP2) was less than 33% each time.
